Each structure is given as a SMILES string. Converted amounts (≈) assume the structure as drawn.

The text below walks through data of ChEMBL document CHEMBL3045422, “Synthesis, characterization, and antimicrobial screening of some Mannich base sydnone derivatives” (2013).

Holding throughout (format): functional
The test system of assay [1] is Staphylococcus aureus. In words: microbe, parasite or virus in culture. As to conditions: read-out: IZ.
Assay [2] concerns Escherichia coli. In words: microbe, parasite or virus in culture.
Assay [3] concerns Staphylococcus aureus. The assay can be described thus: microbe, parasite or virus in culture.
For assay [4], the system named is Bacillus subtilis. In words: microbe, parasite or virus in culture.
The subject of assay [5] is Escherichia coli. In words: microbe, parasite or virus in culture. As to conditions: read-out: IZ.
For assay [6], the system named is Pseudomonas aeruginosa. In words: microbe, parasite or virus in culture.
The subject of assay [7] is Pseudomonas aeruginosa. In words: microbe, parasite or virus in culture. The following applies: read-out: IZ.
In assay [8] the test system is Candida albicans. The assay can be described thus: Antifungal activity against Candida albicans at 300 ug/ml. As to conditions: read-out: IZ.
For assay [9], the system named is Candida albicans. The assay can be described thus: microbe, parasite or virus in culture.
For assay [10], the system named is Bacillus subtilis. The assay can be described thus: microbe, parasite or virus in culture. The following applies: read-out: IZ.

For the compound `COc1ccc(-[n+]2noc([O-])c2CNc2ccc([N+](=O)[O-])cc2)cc1`, the zone of inhibition at 300 µg/mL in assay [1] is 10 mm; in assay [5] it was 14 mm; in [7], 14 mm; in assay [8], 14 mm; in assay [10] it was 12 mm. Also, the MIC stood at 200 µg/mL (≈ 584 µM) in assay [2]; 500 µg/mL (≈ 1460 µM) in assay [3]; 200 µg/mL (≈ 584 µM) in assay [4]; 200 µg/mL (≈ 584 µM) in assay [6]; 200 µg/mL (≈ 584 µM) in [9].
For the compound `CC1(C)S[C@@H]2[C@H](NC(=O)Cc3ccccc3)C(=O)N2[C@H]1C(=O)O` [PENICILLIN G], the zone of inhibition at 300 µg/mL was found to be 45 mm in [1], 30 mm in assay [5], 38 mm in assay [7] and 35 mm in assay [10]. Moreover, the MIC in assay [2] stood at 0.5 µg/mL (≈ 1.5 µM); in [3], 0.125 µg/mL (≈ 0.374 µM); in assay [4], 0.25 µg/mL (≈ 0.748 µM); in assay [6], 0.25 µg/mL (≈ 0.748 µM).
For the compound `COc1ccc(-[n+]2noc([O-])c2CNc2ccc(C)cc2)cc1`, the zone of inhibition at 300 µg/mL was found to be 13 mm in assay [1]; 13 mm in [5]; 13 mm in [7]; 16 mm in assay [8]; 14 mm in [10]. Further, the MIC in [2], in [3], in assay [4], in [6] and in assay [9] was 200 µg/mL (≈ 642 µM) in each case.
`COc1ccc(-[n+]2noc([O-])c2Cn2c(-c3ccccc3Br)nc3ccccc32)cc1`: the zone of inhibition at 300 µg/mL in assay [1] amounted to 10 mm; in assay [5] it was 14 mm; in assay [7], 13 mm; in [8], 13 mm; in assay [10], 12 mm. Further, the MIC in assay [2] is 200 µg/mL (≈ 419 µM); in assay [3], 500 µg/mL (≈ 1050 µM); in assay [4] it was 300 µg/mL (≈ 629 µM); in assay [6], 200 µg/mL (≈ 419 µM); in assay [9] it was 200 µg/mL (≈ 419 µM).
`COc1ccc(-[n+]2noc([O-])c2CNc2nc3ccc(Br)cc3s2)cc1`: the zone of inhibition at 300 µg/mL in assay [1] was 18 mm; in [5], 11 mm; in assay [7] it was 12 mm; in assay [8], 21 mm; in assay [10], 15 mm. Also, the MIC came out at 300 µg/mL (≈ 692 µM) in assay [2]; 100 µg/mL (≈ 231 µM) in assay [3]; 100 µg/mL (≈ 231 µM) in assay [4]; 200 µg/mL (≈ 462 µM) in assay [6]; 80 µg/mL (≈ 185 µM) in assay [9].
In the case of `COc1ccc(-[n+]2noc([O-])c2CNc2nc3c([N+](=O)[O-])cccc3s2)cc1`, the zone of inhibition at 300 µg/mL in assay [1] was found to be 27 mm; in assay [5] it was 23 mm; in [7] it was 18 mm; in assay [8], 32 mm; in assay [10], 30 mm. The MIC in [2] was determined as 40 µg/mL (≈ 100 µM); in [3], 20 µg/mL (≈ 50.1 µM); in assay [4], 20 µg/mL (≈ 50.1 µM); in assay [6], 100 µg/mL (≈ 250 µM); in assay [9] it was 20 µg/mL (≈ 50.1 µM).
With `COc1ccc(-[n+]2noc([O-])c2Cn2c(-c3ccc(OC)c([N+](=O)[O-])c3)nc3ccccc32)cc1`, the zone of inhibition at 300 µg/mL came to 10 mm in [1]; 14 mm in assay [5]; 16 mm in [7]; 16 mm in assay [8]; 10 mm in assay [10]. The MIC in assay [2] was determined as 200 µg/mL (≈ 422 µM); in assay [3], 500 µg/mL (≈ 1060 µM); in assay [4] it was 500 µg/mL (≈ 1060 µM); in assay [6] it was 200 µg/mL (≈ 422 µM); in assay [9], 200 µg/mL (≈ 422 µM).
As for `CCOc1ccc2nc(NCc3c([O-])on[n+]3-c3ccc(OC)cc3)sc2c1`, the zone of inhibition at 300 µg/mL turned out to be 14 mm in assay [1]; 13 mm in assay [5]; 13 mm in assay [7]; 14 mm in [8]; 13 mm in [10]. Also, the MIC in assay [2] came to 300 µg/mL (≈ 753 µM); in assay [3], 200 µg/mL (≈ 502 µM); in [4], 200 µg/mL (≈ 502 µM); in assay [6], 200 µg/mL (≈ 502 µM); in assay [9], 200 µg/mL (≈ 502 µM).
`COc1ccc(-[n+]2noc([O-])c2CNc2nc3cc([N+](=O)[O-])ccc3s2)cc1`: the zone of inhibition at 300 µg/mL in assay [1] came to 10 mm; in assay [5], 12 mm; in [7], 10 mm; in assay [8], 14 mm; in assay [10] it was 10 mm. Further, the MIC came to 300 µg/mL (≈ 751 µM) in assay [2]; 500 µg/mL (≈ 1250 µM) in assay [3]; 500 µg/mL (≈ 1250 µM) in assay [4]; 500 µg/mL (≈ 1250 µM) in [6]; 200 µg/mL (≈ 501 µM) in [9].
Turning to `COc1ccc(-[n+]2noc([O-])c2CNc2ccccc2Cl)cc1`, the zone of inhibition at 300 µg/mL was found to be 12 mm in assay [1]; 12 mm in [5]; 10 mm in assay [7]; 12 mm in [8]; 12 mm in assay [10]. The MIC stood at 300 µg/mL (≈ 904 µM) in [2]; 300 µg/mL (≈ 904 µM) in [3]; 300 µg/mL (≈ 904 µM) in assay [4]; 500 µg/mL (≈ 1510 µM) in assay [6]; 300 µg/mL (≈ 904 µM) in assay [9].
As for `COc1ccc(-[n+]2noc([O-])c2CNc2ccccc2[N+](=O)[O-])cc1`, the zone of inhibition at 300 µg/mL in assay [1] was 11 mm; in assay [5] it was 14 mm; in assay [7] it was 13 mm; in [8], 14 mm; in assay [10], 13 mm. The MIC in assay [2] turned out to be 200 µg/mL (≈ 584 µM); in assay [3] it was 300 µg/mL (≈ 876 µM); in assay [4], 200 µg/mL (≈ 584 µM); in assay [6], 200 µg/mL (≈ 584 µM); in [9], 200 µg/mL (≈ 584 µM).
Regarding `CC1(C)S[C@@H]2[C@H](NC(=O)[C@H](N)c3ccccc3)C(=O)N2[C@H]1C(=O)O` [AMPICILLIN], the zone of inhibition at 300 µg/mL stood at 30 mm in assay [1], 31 mm in assay [5], 29 mm in assay [7] and 26 mm in assay [10]. The MIC in assay [2] came out at 100 µg/mL (≈ 286 µM); in [3], 250 µg/mL (≈ 715 µM); in assay [4], 100 µg/mL (≈ 286 µM); in assay [6] it was 100 µg/mL (≈ 286 µM).
As for `OC(Cn1cncn1)(Cn1cncn1)c1ccc(F)cc1F` [FLUCONAZOLE], the zone of inhibition at 300 µg/mL in assay [8] was determined as 25 mm. For the same compound, the MIC in assay [9] was determined as 100 µg/mL (≈ 327 µM).
Consider `O=C(O)c1cn(C2CC2)c2cc(N3CCNCC3)c(F)cc2c1=O` [CIPROFLOXACIN], for which the zone of inhibition at 300 µg/mL in [1] worked out at 30 mm; in [7], 23 mm; in [10], 31 mm. In addition, the MIC in [2] was determined as 25 µg/mL (≈ 75.4 µM); in assay [3] it was 50 µg/mL (≈ 151 µM).
On to `CN[C@@H]1[C@H](O[C@H]2[C@H](O[C@H]3[C@H](O)[C@@H](O)[C@H](N=C(N)N)[C@@H](O)[C@@H]3N=C(N)N)O[C@@H](C)[C@]2(O)C=O)O[C@@H](CO)[C@H](O)[C@H]1O` [STREPTOMYCIN], for which the zone of inhibition at 300 µg/mL in assay [1] turned out to be 40 mm; in [5] it was 28 mm; in assay [7] it was 34 mm; in assay [10], 40 mm. The MIC in assay [2] was found to be 1 µg/mL (≈ 1.72 µM); in [3] it was 0.125 µg/mL (≈ 0.215 µM); in [4], 0.25 µg/mL (≈ 0.43 µM); in assay [6] it was 0.5 µg/mL (≈ 0.86 µM).
